# Patent US20170055529A1, “BROAD SPECTRUM WEED CONTROL IN FLOODED RICE BY IN-WATER APPLICATION OF AUXIN HERBICIDES” (priority 2015, published 2017)
# Key:
# Format in all cases: in vivo
# [1] = tested on: LEFCH = Leptochloa chinensis (Chinese sprangletop); test: Field trial in-water herbicidal efficacy
# Method: (§1) Field trials were conducted in rice using standard herbicide small plot research methodology. Plot size was 2 square meters (m^2) using 1.6 meter (m) diameter rings placed into the rice paddy soil with capability for flooding to maintain good rice cultural practices and rice growing conditions. There were 3 replicates per treatment. Rice was Japonica type that was hand-transplanted into the saturated soil in the rings as per normal cultural practices. The transplanted rice crop was grown using normal cultural practices for fertilization, watering, flooding and maintenance to ensure good growth of the crop and the weeds under transplanted rice conditions in Taiwan.
# (§2) Treatments were applied by mixing the treatments with deionized water just prior to water-injection application by hand to multiple sides in the ring plots. For each 2 m^2 plot, 50 mL deionized water was mixed with the appropriate formulated product amounts to treat 2 m^2 to achieve the desired application rates based on unit area of application (hectare). Ring plot water depth was kept at 3 to 7 cm deep before and after water-injection application.
# (§3) The rice and weeds were evaluated at 28 days after application (DAA). Triclopyr triethylammonium (as Garlon® 3 A, 360 g ae/L); fluroxypyr methylheptyl ester (meptyl or MHE, as Starane® Ultra, 333 g ae/L); 2,4-dichlorophenoxyacetic acid dimethylammonium (2,4-D AMINE, 400 g ae/L SL); penoxsulam (as Grasp® SC, 240 g ai/L); and bensulfuron-methyl (as LONDAX® 10% WAY WP) were used.
# (§4) The treated and control plots were rated at 28 days after application. Ratings were based on percent (%) visual weed control, where 0 corresponds to no control and 100 corresponds to complete control.
# [2] = tested on: MOOVA = Monochoria vaginalis (monochoria); test: Field trial in-water herbicidal efficacy
# Method: as §1, §2, §3, §4
# [3] = tested on: CYPDI = Cyperus difformis (small-flower flatsedge); test: Field trial in-water herbicidal efficacy
# Method: as §1, §2, §3, §4
# [4] = tested on: SCPJU = Schoenoplectus juncoides (Japanese bulrush); test: Field trial in-water herbicidal efficacy
# Method: as §1, §2, §3, §4
# [5] = tested on: ECHCG = Echinochloa crus-galli (barnyardgrass); test: Field trial in-water herbicidal efficacy
# Method: as §1, §2, §3, §4
# [6] = tested on: MOOVA = Monochoria vaginalis (monochoria); test: Greenhouse in-water herbicidal activity (large pots); conditions: for Percent (%) Visual Injury Ratings - 16 DAA, MOOVA / Percent (%) Visual Injury Ratings - 22 DAA, MOOVA: greenhouse large pots
# Method: (§5) Weed seeds or nutlets of the desired test plant species were planted in puddled soil (mud) prepared by mixing shredded topsoil and deionized (DI) water in a 1:1 ratio in a standard cement mixer. […] Osmocote® (17:6:10 N:P:K; 0.5 teaspoon) was added to the bottom of a container. The container is a high-density polyethylene (HDPE) round container (4.163 L (1.1 gallon), 15 cm high×20.55 cm diameter; for treatment purposes, the surface area is calculated as 331 cm^2 with 1 hectare equivalent to 10^8 cm^2). The mud mixture (2,750 mL) was added to the container filling it half full. Stakes were placed horizontally in each container to create separate areas for which to plant each different plant species. Water was added on a regular basis to maintain the paddy flood, and supplemental lighting was provided with overhead metal halide 1000-Watt lamps as necessary.
# (§6) Once the plants had reached the proper size (the growth stage of the various species ranged from 2 to 4 leaves), the containers were flooded with city water to a depth of 3 cm submerging the plants 80-100%. The outside of each container was measured and marked at a 3-cm line with a black permanent marker to eliminate water level variability during the trial period. Water was added daily to maintain this water depth. Triclopyr triethylammonium (as Garlon® 3 A, 360 g ae/L); triclopyr butoxyethyl ester (as Garlon® 4, 480 g ae/L); fluroxypyr methylheptyl ester (meptyl or MHE, as Starane® Ultra, 333 g ae/L); fluroxypyr acid (850 grams acid equivalent per kilogram (g ae/kg)); 2,4-dichlorophenoxyacetic acid dimethylammonium (2,4-D DMA, as Weedar® 64 EC, 456 g ae/L); 2,4-dichlorophenoxyacetic acid 2-ethylhexyl ester (2,4-D 2-EHE, as Agri Star®, 456 g ae/L); clopyralid olamine (as Stinger®, 360 g ae/L); and penoxsulam (as Grasp® SC, 240 g ai/L) were used. Each herbicide treatment for each pot was mixed in water (80 mL) and applied directly into the paddy water at rates adjusted to the surface area. The dry formulations were pre-weighed based on the rate of the active ingredient to be applied on a per unit area basis, placed in 30 mL vials, and capped. Granules were spread onto the top of the water in each pot and dispersed throughout the water. Treatments were replicated 3 times.
# (§7) The treated plants and control plants were placed in a greenhouse as described above and water was added as needed to maintain a flood depth of 3 cm. […]
# [7] = tested on: ECHCG = Echinochloa crus-galli (barnyardgrass); test: as above; conditions: 744 h, read-out: Percent (%) Visual Injury Ratings - 31 DAA, ECHCG
# Method: as §5, §6, §7
# [8] = tested on: ORYSP = Oryza sativa Japonica (transplanted paddy rice); test: Field trial in-water application, crop tolerance
# Method: as §1, §2, §3, §4
# [9] = tested on: ORYSP = Oryza sativa (transplanted paddy rice); test: Greenhouse in-water application (large pots), crop injury
# Method: as §5, §6, §7
# [10] = Pontederia vaginalis, 744 h, read-out: Percent (%) Visual Injury Ratings - 31 DAA, MOOVA
smiles,measurement,setting,value
"CCCCCCC(C)OC(=O)COc1nc(F)c(Cl)c(N)c1Cl (centres unmarked) [Fluroxypyr-meptyl (Starane ® Ultra), 1-methylheptyl 2-[(4-amino-3,5-dichloro-6-fluoro-2-pyridinyl)oxy]acetate]","Percent (%) Visual Injury Ratings - 28 DAA, LEFCH",[1]; 140 g ae/ha in-water 10 DAT,0.0%
same,"Percent (%) Visual Injury Ratings - 28 DAA, LEFCH",[1]; 280 g ae/ha in-water 10 DAT,0.0%
same,"Percent (%) Visual Injury Ratings - 28 DAA, LEFCH",[1]; 560 g ae/ha in-water 10 DAT,0.0%
same,"Percent (%) Visual Injury Ratings - 28 DAA, MOOVA",[2]; 140 g ae/ha in-water 10 DAT,0.0%
same,"Percent (%) Visual Injury Ratings - 28 DAA, MOOVA",[2]; 280 g ae/ha in-water 10 DAT,0.0%
same,"Percent (%) Visual Injury Ratings - 28 DAA, MOOVA",[2]; 560 g ae/ha in-water 10 DAT,60.0%
same,"Percent (%) Visual Injury Ratings - 28 DAA, CYPDI",[3]; 140 g ae/ha in-water 10 DAT,95.0%
same,"Percent (%) Visual Injury Ratings - 28 DAA, CYPDI",[3]; 280 g ae/ha in-water 10 DAT,98.7%
same,"Percent (%) Visual Injury Ratings - 28 DAA, CYPDI",[3]; 560 g ae/ha in-water 10 DAT,100.0%
same,"Percent (%) Visual Injury Ratings - 28 DAA, SCPJU",[4]; 140 g ae/ha in-water 10 DAT,88.3%
same,"Percent (%) Visual Injury Ratings - 28 DAA, SCPJU",[4]; 280 g ae/ha in-water 10 DAT,98.0%
same,"Percent (%) Visual Injury Ratings - 28 DAA, SCPJU",[4]; 560 g ae/ha in-water 10 DAT,99.3%
same,"Percent (%) Visual Injury Ratings - 28 DAA, ECHCG",[5]; 140 g ae/ha in-water 10 DAT,0.0%
same,"Percent (%) Visual Injury Ratings - 28 DAA, ECHCG",[5]; 280 g ae/ha in-water 10 DAT,0.0%
same,"Percent (%) Visual Injury Ratings - 28 DAA, ECHCG",[5]; 560 g ae/ha in-water 10 DAT,0.0%
same,"Percent (%) Visual Injury Ratings - 16 DAA, MOOVA",[6]; 35 g ae/ha,27%
same,"Percent (%) Visual Injury Ratings - 22 DAA, MOOVA",[6]; 35 g ae/ha,0%
same,"Percent (%) Visual Injury Ratings - 16 DAA, MOOVA",[6]; 70 g ae/ha,27%
same,"Percent (%) Visual Injury Ratings - 22 DAA, MOOVA",[6]; 70 g ae/ha,3%
same,"Percent (%) Visual Injury Ratings - 16 DAA, MOOVA",[6]; 140 g ae/ha,13%
same,"Percent (%) Visual Injury Ratings - 22 DAA, MOOVA",[6]; 140 g ae/ha,0%
same,"Percent (%) Visual Injury Ratings - 16 DAA, MOOVA",[6]; 280 g ae/ha,5%
same,"Percent (%) Visual Injury Ratings - 22 DAA, MOOVA",[6]; 280 g ae/ha,15%
same,pest or weed control at 280 g/ha,[6]; [10],100%
same,pest or weed control at 560 g/ha,[6]; [10],100%
same,pest or weed control at 1120 g/ha,[6]; [10],100%
same,pest or weed control at 280 g/ha,[7],45%
same,pest or weed control at 560 g/ha,[7],75%
same,pest or weed control at 1120 g/ha,[7],99%
same,"Percent (%) Visual Injury Ratings - 28 DAA, ORYSP",[8]; 140 g ae/ha in-water 10 DAT,0%
same,"Percent (%) Visual Injury Ratings - 28 DAA, ORYSP",[8]; 280 g ae/ha in-water 10 DAT,0%
same,"Percent (%) Visual Injury Ratings - 28 DAA, ORYSP",[8]; 560 g ae/ha in-water 10 DAT,0%
same,"Percent (%) Visual Injury Ratings - 31 DAA, ORYSP",[9]; 280 g ae/ha in-water,5%
same,"Percent (%) Visual Injury Ratings - 31 DAA, ORYSP",[9]; 560 g ae/ha in-water,28%
same,"Percent (%) Visual Injury Ratings - 31 DAA, ORYSP",[9]; 1120 g ae/ha in-water,73%
